Results reported in patent publication US5565478A (The United States of America as represented by the …, priority 1994, dated 1996).
Like-named read-outs stand apart in the source and are kept apart here.

Legend:
calcium levels in cells = conditions: cited from earlier work
microtubule = conditions: cited from earlier work
human tumors = conditions: clinical trials; cited from earlier work
[1] = cited from earlier work
[2] = in vitro; cited from earlier work
[3] = tested on: A2780 human ovarian cancer cells; experiment: Colony growth inhibition, 24 hr exposure; assay type: cell-based; conditions: colonies counted after 5 days
Protocol: (§1) A2780 human ovarian cancer cells are available from the ATCC. The cells were cultured in RPMI 1640 with 10% FCS under standard conditions. See the ATCC catalog. The culture media contained penicillin and streptomycin and in some instances, insulin.
(§2) Cells (500) were plated in 6-well plates and allowed to grow overnight. […] Controls were conducted by adding DMSO vehicle in complete media. […] After 5 days of incubation, the cells were washed once with PBS and then stained with methylene blue in 40% methanol for 20 min. The wells were rinsed gently with water and allowed to air dry. Colonies were counted by hand.

[4] = tested on: A2780-CP70 cells (cisplatin-resistant); experiment: Colony growth inhibition, 24 hr exposure; assay type: cell-based; conditions: Homo sapiens, colonies counted after 5 days
Protocol: (§3) A2780-CP70 are a selected subline of A2780 which are stably resistant to cisplatin in the absence of continuous exposure. These cells were obtained from Robert Ozols, MD at the Fox Chase Cancer Center, Philadelphia, Pa., USA. These cells were cultured as described above.
as §2

A2780 cells [5] = experiment: Colony assay, compound 1 followed by paclitaxel; assay type: cell-based, human; conditions: compound 1 (0, 1 and 5 μM) 24 hr, then compound 3 (paclitaxel, 0 to 0.01 μM) 24 hr
Protocol: as §1
(§4) Cells were incubated overnight in serum-containing medium, then washed once and treated with compound 1 (0, 1 and 5 μM). […] The resulting cells were washed once with PBS, treated with serum-containing media and incubated for 5 days. The cells were then fixed and stained with methylene blue in 40% methanol and the colonies were counted. FIGS. 2 and 3 show the results for the A2780 and A2780-CP70 cells, respectively. Data are presented as a percent of control (DMSO vehicle) growth.

A2780-CP70 cells [6] = experiment: Colony assay, compound 1 followed by paclitaxel; assay type: cell-based, human; conditions: compound 1 (0, 1 and 5 μM) 24 hr, then compound 3 (paclitaxel, 0 to 0.01 μM) 24 hr
Protocol: as §3, §4

A2780-CP70 cells [7] = experiment: Colony assay, paclitaxel followed by compound 1; assay type: cell-based, human; conditions: paclitaxel (0.003 μM) 24 hr, then compound 1 (0 to 10 μM); cisplatin-resistant A2780-CP70
Protocol: as §3
The cells were again washed with PBS and treated with compound 1 (0 to 10 μM) for 24 hr, washed again with PBS and incubated for 5 days in drug-free media. The resulting cells were fixed, stained and the colonies were counted. Data are presented in FIGS. 4 and 5 as a percentage of control growth (DMSO treatment only).

A2780 cells [8] = experiment: Monolayer assay, compound 1 followed by paclitaxel; assay type: cell-based, human; conditions: compound 1 (5 μM) 24 hr, then paclitaxel (0 to 0.007 μM) 24 hr
Protocol: as §1
(§5) For each of the cell types, 50,000 cells were plated per well in 24-well tissue culture plates. One mL of medium was added to each well and the cells were incubated overnight at 37° C. The media was carefully aspirated away and media (1 mL) containing compound 1 (5 μM) or DMSO vehicle control was added to each well. After incubating the cells for 24 hr at 37° C., the media from each well was carefully aspirated away and each well was washed twice with serum-free media. […] After the incubation, the media was aspirated away and each well was washed twice with serum-free media. Serum-containing media was then added to each well and all plates were incubated for 4 days at 37° C. At the end of 4 days, the media was aspirated off and wells were fixed and stained with crystal violet in methanol. The wells were air dried and eluted with sodium citrate and ethanol. The optical density (OD) was determined for each of the well eluates at 540 nm. The percent relative growth was calculated by dividing the mean OD of identically treated wells by the OD of the control and multiplying by 100.

A2780-CP70 cells [9] = experiment: Monolayer assay, compound 1 followed by paclitaxel; assay type: cell-based, human; conditions: compound 1 (5 μM) 24 hr, then paclitaxel (0 to 0.007 μM) 24 hr
Protocol: as §3, §5

[10] = tested on: MDA 231 human breast cancer cells; experiment: Monolayer assay, compound 1 followed by paclitaxel; assay type: cell-based; conditions: compound 1 (5 μM) 24 hr, then paclitaxel (0 to 0.007 μM) 24 hr; MDA 231 monolayer
Protocol: MDA-231 hormone-resistant human breast cancer cells from ATCC were cultured in DMEM with 10% FCS and penicillin/streptomycin, under standard conditions.
as §5

A2780 cells [11] = experiment: Colony assay, compound 1 in combination with carboplatin; assay type: cell-based, human
Protocol: as §1
(§6) Cells were incubated overnight in serum-containing medium, then washed once and treated with compound 1 (5 μM). After 24 hr, the cells were washed once with PBS and then treated with carboplatin (1 to ~200 μM) for an additional 24 hr. The resulting cells were washed once with PBS, treated with serum-containing media and incubated for 5 days. The cells were then fixed and stained with methylene blue in 40% methanol and the colonies were counted. […] Data are presented as a percent of control (DMSO vehicle) growth.

A2780-CP70 cells [12] = experiment: as above; assay type: cell-based, human
Protocol: as §3, §6

[13] = Toxicity of compound 1 in patients
[14] = Stability of compound 1 in PEG-400 solution; assay type: physicochemical; conditions: temperatures of up to 50° C.
Protocol: Compound 1 (NSC 609974) is available from the National Cancer Institute as a white powder. Preferably, it is dispensed as a 100 mg/mL solution in PEG-400. Compound 1 in PEG-400 solution is stable for at least 3 months at temperatures of up to 50° C. It is administered as a measured liquid dose daily for 8 days or more. It is recommended that patients take nothing by mouth for 3 hours prior to and 1 hour after taking the compound 1.

[15] = 100 mg/m^2/day
[16] = at least; fixed dose 100 mg/m^2/d, by the 8th day of administration; read-out: plasma levels in humans; cited from earlier work
[17] = tested on: nonvoltage-gated and voltage-gated calcium channels; conditions: cited from earlier work
[18] = both in vitro and in vivo; cited from earlier work
[19] = tested on: production of arachidonic acid; conditions: cited from earlier work
[20] = tested on: phosphorylation events which are associated with receptor activation; conditions: cited from earlier work
clinical = conditions: human, plasma, 100 mg/m^2
[21] = humans, 100 mg/m^2/d; cited from earlier work
[22] = tested on: receptor-mediated calcium entry (RMCE) in platelets, endothelial cells and neutrophils; conditions: cited from earlier work
[23] = tested on: voltage-gated L-type calcium channels in vascular smooth muscle cells; conditions: vascular smooth muscle cells under patch clamp; cited from earlier work
[24] = tested on: paclitaxel-induced neutropenia; conditions: cited from earlier work
[25] = carboplatin first, then compound 1
[26] = compound 1 (5 μM) 24 hr, then carboplatin (1 to ~200 μM) 24 hr

Molecule: Clc1ccc(COC(Cn2ccnc2)c2ccc(Cl)cc2Cl)cc1 (stereo not drawn) [econazole]
- effect on calcium levels in cells (calcium levels in cells): effect calcium levels in cells

Molecule: CCC(C)n1ncn(-c2ccc(N3CCN(c4ccc(OCC5COC(Cn6cncn6)(c6ccc(Cl)cc6Cl)O5)cc4)CC3)cc2)c1=O (stereo not drawn) [itraconazole]
- effect on calcium levels in cells (calcium levels in cells): effect calcium levels in cells

Molecule: Clc1ccc(COC(Cn2ccnc2)c2ccc(Cl)cc2Cl)c(Cl)c1 (stereo not drawn) [miconazole]
- effect on calcium levels in cells (calcium levels in cells): effect calcium levels in cells

Molecule: CC(=O)O[C@H]1C(=O)[C@@]2(C)[C@H]([C@H](OC(=O)c3ccccc3)[C@]3(O)C[C@H](OC(=O)[C@H](O)[C@@H](NC(=O)c4ccccc4)c4ccccc4)C(C)=C1C3(C)C)[C@]1(OC(C)=O)CO[C@@H]1C[C@@H]2O [Compound 3, Paclitaxel]
- effect on microtubule polymerization (microtubule): promotion of microtubule polymerization
- efficacy in human tumors (human tumors): demonstrated efficacy in several human tumors
- dose at which dose limiting toxicity of peripheral neuropathy has been seen ([1]; paclitaxel infusion over 3-24 hours every 21 days): above 300 mg/m^2
- toxicities of paclitaxel ([1]; patients): nausea, emesis, diarrhea, neutropenia, thrombocytopenia, anemia, hair loss, myalgia, cardiac conduction abnormalities, hypersensitivity reactions, peripheral and autonomic neuropathy, mucositis

Molecule: OC(Cn1cncn1)(Cn1cncn1)c1ccc(F)cc1F [fluconazole]
- effect on calcium levels in cells (calcium levels in cells): effect calcium levels in cells

Molecule: CC(=O)N1CCN(c2ccc(OCC3COC(Cn4ccnc4)(c4ccc(Cl)cc4Cl)O3)cc2)CC1 (stereo not drawn) [ketoconazole]
- effect on activity of paclitaxel [2]: augment the activity of paclitaxel
- effect on calcium levels in cells (calcium levels in cells): effect calcium levels in cells

Molecule: NC(=O)c1nnn(Cc2cc(Cl)c(C(=O)c3ccc(Cl)cc3)c(Cl)c2)c1N [Compound 1, 5-amino-1-(4-(4-chlorobenzoyl)-3,5-dichlorobenzyl)-1,2,3-triazole-4-carboxamide]
- IC50 [3]: 3 µM
- IC50 [4]: 9.5 µM
- combination effect on growth (A2780 cells [5]): supra-additive effect
- combination effect on growth (A2780-CP70 cells [6]): supra-additive effect
- combination effect on growth (A2780-CP70 cells [7]): additive effect
- combination effect on percent relative growth (A2780 cells [8]): supra-additive effect
- combination effect on percent relative growth (A2780-CP70 cells [9]): supra-additive effect
- combination effect on percent relative growth [10]: supra-additive effect
- combination effect on growth, reversed sequence (A2780 cells [11]; [25]): sub-additive effect
- combination effect on growth (A2780 cells [11]; [26]): sub-additive effect
- combination effect on growth, reversed sequence (A2780-CP70 cells [12]; [25]): sub-additive effect
- combination effect on growth (A2780-CP70 cells [12]; [26]): sub-additive effect
- common low-grade toxicities ([13]; human, in vivo): nausea and emesis
- uncommon toxicities ([13]; human, in vivo): mood changes (low-grade), peripheral neuropathy (mild to moderate) and neutropenia
- toxicity at dosing level ([13]; patients, 100 mg/m^2/day): no significant toxicity
- stability in PEG-400 solution [14]: at least 3 months
- usual plasma levels, plateau [15]: 3 to 4 µg/mL
- concentration ([15]; read-out: usual plasma levels, plateau (molar)): 5 to 10 µM
- concentration [16]: 1 to 5 µM
- inhibition of calcium uptake [17]: inhibitor of calcium uptake
- single agent activity [18]: antiproliferative, anti-invasive, and anti-metastatic properties
- effect on production of arachidonic acid [19]: alter production of arachidonic acid
- effect on phosphorylation events [20]: inhibits phosphorylation events
- concentration at 192 h (clinical): 1 to 5 µM
- toxicity at fixed dose [21]: no significant toxicity

Molecule: COc1ccc(CCCOC(Cn2ccnc2)c2ccc(OC)cc2)cc1 (stereo not drawn) [Compound 2]
- inhibition of RMCE [22]: inhibits RMCE
- block of voltage-gated L-type calcium channels [23]: blocks voltage-gated L-type calcium channels

B1: G-CSF: cytokine which blunts paclitaxel-induced neutropenia; recombinant cytokine from Amgen (protein, UniProt P09919 31-207, looked up)
Granulocyte …: TPLGPASSLPQSFLLKCLEQVRKIQGDGAALQEKLVSECATYKLCHPEELVLLGHSLGIPWAPLSSCPSQALQLAGCLSQLHSGLFLYQGLLQALEGISPELGPTLDTLQLDVADFATTIWQQMEELGMAPALQPTQGAMPAFASAFQRRAGGVLVASHLQSFLEVSYRVLRHLAQP
modifications: filgrastim
notes: recombinant cytokine from Amgen
- maintenance of paclitaxel dose ([24]; G-CSF escalation up to 30 μg/kg/d, paclitaxel alone or with compound 1): associated with maintenance of the dose of paclitaxel
- effect on paclitaxel-induced neutropenia ([24]; in vivo): blunts paclitaxel-induced neutropenia
